Results on eleven compounds are retold here after publication PMC9612427 (Journal of the American Chemical Society, 2022).

pIC50: −log10 of the molar value.

The nature of series [1]: BBB penetrance: brain and serum drug levels after single IV injection. It counts as in vivo, mice. The following applies: for Kp at 60 min: mouse, brain and serum, iv, 25 mg/kg.
Series [2] relates to MAPK signaling (phospho-MEK1/2, phospho-ERK1/2) in A375 cells. The series is described as follows: MEK1/2 and ERK1/2 phosphorylation. The series is classed as cell-based. The following applies: for inhibition of ERK1/2 phosphorylation after 24 h: highest concentrations (10 μM).
The target of a further series is P-glycoprotein (MDR1) (Homo sapiens, UniProt P08183). The series is described as follows: MDR1-MDCK transwell assay. The following applies: for efflux ratio (ER): 10 μM compound, 90 min, substrate when ER ≥ 2.0.
Series [3] relates to V600E BRAF tumors in the brain. The following applies: cited from earlier work.
The subject of series [4] is P-gp. Briefly: P-gp in vivo assay. The following applies: mice.
Series [5] deals with intracranially implanted A375 melanoma cells. The series is described as follows: A375 intracranial mouse model of metastatic melanoma. It counts as in vivo. The following applies: 50 mg/kg IP once a day, two cycles of 5 days, 10 doses; athymic nude mice.
The target of series [6] is P-gp (Homo sapiens, UniProt P08183). The series is described as follows: calcein-AM P-gp inhibition assay in MDR1-MDCK cells. It counts as cell-based.
The test system of series [7] is AM-38 (V600E BRAF) and U118MG, T98G, U87 (WT BRAF) glioma cell lines. Briefly: cell culture cytotoxicity against glioma cell lines. The series is classed as cell-based.
Series [8] concerns MAPK signaling in CHL-1, a WT BRAF melanoma cell line. The series is described as follows: MEK1/2 and ERK1/2 phosphorylation. The series is classed as cell-based. The following applies: CHL-1 (WT BRAF), 1 h, identical treatment.
For series [9], the system named is V600E BRAF melanoma cell lines. The series is described as follows: 72 h cell viability assay, panel of V600E BRAF melanoma cell lines. The series is classed as cell-based. The following applies: read-out: IC50, panel of V600E BRAF melanoma cell lines.
A further series relates to cell lines with WT BRAF. Briefly: 72 h cell viability assay, cell lines with WT BRAF. It counts as cell-based. The following applies: read-out: IC50, cell lines with WT BRAF.

Sequence of P-glycoprotein (MDR1) (P08183 whole entry): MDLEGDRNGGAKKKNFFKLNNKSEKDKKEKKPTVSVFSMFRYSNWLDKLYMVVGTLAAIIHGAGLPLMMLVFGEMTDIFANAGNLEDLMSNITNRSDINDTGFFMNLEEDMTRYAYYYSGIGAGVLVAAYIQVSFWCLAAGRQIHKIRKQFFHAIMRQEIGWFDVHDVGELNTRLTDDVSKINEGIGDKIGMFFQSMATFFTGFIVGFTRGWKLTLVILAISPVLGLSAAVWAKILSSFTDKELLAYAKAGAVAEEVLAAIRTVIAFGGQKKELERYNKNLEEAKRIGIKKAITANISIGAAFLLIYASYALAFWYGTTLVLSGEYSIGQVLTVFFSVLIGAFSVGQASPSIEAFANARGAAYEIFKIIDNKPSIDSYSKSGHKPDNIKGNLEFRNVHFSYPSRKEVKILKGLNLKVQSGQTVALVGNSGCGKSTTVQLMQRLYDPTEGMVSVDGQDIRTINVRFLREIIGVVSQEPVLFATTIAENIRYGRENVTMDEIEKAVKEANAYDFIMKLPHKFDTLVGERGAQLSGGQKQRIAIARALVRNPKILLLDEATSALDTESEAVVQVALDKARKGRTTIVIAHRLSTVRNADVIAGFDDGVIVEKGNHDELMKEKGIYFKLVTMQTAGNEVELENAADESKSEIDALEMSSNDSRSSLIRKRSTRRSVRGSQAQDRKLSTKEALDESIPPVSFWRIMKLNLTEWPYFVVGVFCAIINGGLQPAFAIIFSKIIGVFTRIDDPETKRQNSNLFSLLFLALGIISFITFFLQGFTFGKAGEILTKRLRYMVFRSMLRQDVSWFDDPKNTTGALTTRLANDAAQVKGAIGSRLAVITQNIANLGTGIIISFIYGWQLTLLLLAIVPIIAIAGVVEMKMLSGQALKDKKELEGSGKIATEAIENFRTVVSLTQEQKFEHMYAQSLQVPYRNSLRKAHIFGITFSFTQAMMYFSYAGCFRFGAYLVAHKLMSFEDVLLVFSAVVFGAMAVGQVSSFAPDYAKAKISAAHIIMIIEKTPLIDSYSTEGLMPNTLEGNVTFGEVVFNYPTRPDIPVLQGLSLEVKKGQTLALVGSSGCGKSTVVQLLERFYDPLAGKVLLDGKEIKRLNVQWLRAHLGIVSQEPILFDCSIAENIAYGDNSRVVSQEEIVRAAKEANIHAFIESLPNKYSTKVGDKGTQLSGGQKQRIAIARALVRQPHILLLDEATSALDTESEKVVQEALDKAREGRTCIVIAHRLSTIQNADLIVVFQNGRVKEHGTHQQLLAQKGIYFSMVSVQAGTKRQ
Sequence of P-gp (Homo sapiens, UniProt P08183) (P08183 whole entry): as above

The term Kp denotes the ratio of the level in a tissue or fluid to that in plasma or blood. `CCCS(=O)(=O)Nc1ccc(F)c(C(=O)c2c[nH]c3ncc(Cl)cc23)c1F` [PLX4720] had a Kp at 60 min in series [1] of 0.0014 to 0.0069. For the same compound, the “inhibition of ERK1/2 phosphorylation after 24 h” value (shortened to “inhibition … after 24 h”) in series [2] was “diminished inhibition”.
`Cn1cnc2c(F)c(Nc3ccc(Br)cc3F)c(C(=O)NOCCO)cc21` [binimetinib]: the “efflux ratio (ER)” value at P-glycoprotein (MDR1) (MDR1-MDCK transwell) is reported as “high ERs”.
Turning to `COC(=O)c1cn2c3c(c(N4CCN(C)CC4)c(F)cc3c1=O)OC[C@@H]2C` [compound 7], on P-glycoprotein (MDR1) (MDR1-MDCK transwell), the “efflux ratio (ER)” value is reported as 5.66.
Take `CC(C)(C)c1nc(-c2cccc(NS(=O)(=O)c3c(F)cccc3F)c2F)c(-c2ccnc(N)n2)s1` [dabrafenib]: in series [3] (combined with trametinib, melanoma brain metastases, clinical trials), the “duration of intracranial response” value is 6.5 months. For the same compound, the “fold increase of brain-to-serum ratio by P-gp inhibition (elacridar)” value in the series with P-gp [4] (15 min, 2.5 mg/kg elacridar IV 30 min before 25 mg/kg compound IV) amounted to 4.3 fold. The compound further registered a median survival in [5] of 39 days. The compound also registered a Kp at 60 min in [1] of 0.0014 to 0.0069. Moreover, the “inhibition … after 24 h” value in series [2] is “diminished inhibition”.
In the case of `COc1cc2c(cc1OC)CN(CCc1ccc(NC(=O)c3cccc4c(=O)c5cccc(OC)c5[nH]c34)cc1)CC2` [elacridar], the “P-gp inhibition (calcein-AM fluorescence)” value at P-gp [6] is “robust inhibition”.
Consider `COC(=O)N[C@@H](C)CNc1nccc(-c2cn(C(C)C)nc2-c2cc(Cl)cc(NS(C)(=O)=O)c2F)n1` [encorafenib], for which, in series [1], the Kp at 60 min lay within 0.0014 to 0.0069.
As usually defined, the pIC50 is the negative decadic logarithm of the IC50, by convention in mol/L. With `CCCS(=O)(=O)Nc1cc(Cl)cc(-c2nc(C(C)(C)C)sc2-c2ccnc(N)n2)c1F` [everafenib], the “potentiation of brain penetrance with elacridar” value in the series on P-gp [4] (time not given) is reported as “did display potentiation with elacridar”. In series [5], the median survival is listed as 50.5 days. Further, the “permeability (Papp)” value on P-glycoprotein (MDR1) (MDR1-MDCK transwell, A–B and B–A directions) fell in the range of 4.9 to 6.4 ×10⁻⁶ cm/s. In series [7] (AM-38, glioblastoma cell line with V600E BRAF), the “cytotoxicity against AM-38” value is on record as “comparable cytotoxicity to dabrafenib”. For the same compound, in series [7] (U118MG, T98G, U87), the “activity against glioma cell-lines with WT BRAF” value is given as “no activity”. Further, in series [8], the “inhibition of MAPK signaling” value is on record as “not observed”. Further, the negative logarithm of the IC50 (pIC50) is 8.00 to 8.70 in [9] and under 6.00 in the series with cell lines with WT BRAF. In addition, in [1] (mice, 60 min after single 25 mg/kg IV injection), the brain-to-serum ratio was 0.286 ng/g:ng/mL. Moreover, in [2] (1 h, 1 μM everafenib, 10 μM everafenib-CO2H), the “inhibition of MAPK signaling (MEK1/2 and ERK1/2 phosphorylation)” value was “strongly inhibited”. Also, the “inhibition … after 24 h” value in series [2] is recorded as “sustained”.
As to `COc1cc2nc(N3CCN(C(=O)c4ccco4)CC3)nc(N)c2cc1OC` [prazosin], the “efflux ratio (ER)” value at P-glycoprotein (MDR1) (MDR1-MDCK transwell) is on record as “high ERs”.
With `C=C[C@H]1C[N@@]2CC[C@H]1C[C@@H]2[C@@H](O)c1ccnc2ccc(OC)cc12` [quinidine], the “efflux ratio (ER)” value at P-glycoprotein (MDR1) (MDR1-MDCK transwell) is recorded as “high ERs”. In addition, the “P-gp inhibition (calcein-AM fluorescence)” value at P-gp [6] is given as “robust inhibition”.
What is called Papp is a coefficient for how fast a substance crosses the barrier. The low end stands for slow passage, the high end for fast passage. `CC(C)(C)c1ccc(C(O)CCCN2CCC(C(O)(c3ccccc3)c3ccccc3)CC2)cc1` (stereo not shown) [terfenadine]: the apparent permeability (Papp) at 90 min, 10 μM at P-glycoprotein (MDR1) (human, MDCK-MDR1) turned out to be 1.2 ×10⁻⁶ cm/s.
For `CCCS(=O)(=O)Nc1ccc(F)c(C(=O)c2c[nH]c3ncc(-c4ccc(Cl)cc4)cc23)c1F` [vemurafenib], the patients responding entry in series [3] (pleomorphic xanthoastrocytoma patients, histology agnostic trial) is reported as “four out of seven”. In addition, at P-glycoprotein (MDR1) (MDR1-MDCK transwell), the “efflux ratio (ER)” value is recorded as “high ERs”.
